“Also recorded” adds a separate entry of the source.
What follows are molecules tested against T1, TLR7 (Mus musculus, UniProt P58681) (assay: TNF-α secretion ELISA after TLR7 agonist imiquimod (IMQ) in RAW 264.7 cells). Conditions: SK01 and structural derivatives, inhibitor 1 h, then IMQ 4 h.
T1 construct: endogenous in cells; host or cells: RAW 264.7
T1 sequence (P58681 27-1050): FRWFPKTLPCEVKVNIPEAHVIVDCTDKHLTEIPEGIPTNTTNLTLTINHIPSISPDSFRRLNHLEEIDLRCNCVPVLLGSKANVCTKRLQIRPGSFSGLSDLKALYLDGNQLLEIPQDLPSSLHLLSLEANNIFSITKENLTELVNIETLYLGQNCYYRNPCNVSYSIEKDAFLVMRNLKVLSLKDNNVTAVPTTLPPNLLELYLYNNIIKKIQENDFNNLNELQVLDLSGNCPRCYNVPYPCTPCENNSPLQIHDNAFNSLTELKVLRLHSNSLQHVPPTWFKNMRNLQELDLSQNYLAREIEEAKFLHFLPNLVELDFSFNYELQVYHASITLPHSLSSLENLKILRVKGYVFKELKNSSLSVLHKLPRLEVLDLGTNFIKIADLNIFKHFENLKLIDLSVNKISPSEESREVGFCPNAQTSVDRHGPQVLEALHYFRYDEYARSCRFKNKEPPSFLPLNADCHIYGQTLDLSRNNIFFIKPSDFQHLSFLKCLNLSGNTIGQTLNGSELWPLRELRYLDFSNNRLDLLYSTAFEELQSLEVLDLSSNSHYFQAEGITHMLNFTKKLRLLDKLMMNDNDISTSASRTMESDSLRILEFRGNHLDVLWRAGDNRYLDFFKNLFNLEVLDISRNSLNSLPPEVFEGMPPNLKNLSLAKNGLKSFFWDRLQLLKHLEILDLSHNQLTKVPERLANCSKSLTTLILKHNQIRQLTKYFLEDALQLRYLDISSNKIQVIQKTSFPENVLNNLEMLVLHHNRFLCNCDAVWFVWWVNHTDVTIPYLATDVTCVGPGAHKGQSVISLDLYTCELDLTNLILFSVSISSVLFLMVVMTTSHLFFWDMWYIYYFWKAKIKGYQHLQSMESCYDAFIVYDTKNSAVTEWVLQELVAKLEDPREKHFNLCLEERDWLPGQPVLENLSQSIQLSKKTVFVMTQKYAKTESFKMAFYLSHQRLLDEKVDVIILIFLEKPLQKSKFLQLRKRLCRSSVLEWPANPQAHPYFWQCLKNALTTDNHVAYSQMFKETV
Assay type: cell-based
Method: In order to determine the inhibitory activities of the test-ligand, RAW 264.7 cells were pretreated with each candidate compound for 1 hour, then treated with Pam3CSK4 (synthetic triacyl lipopeptide; TLR1/2, Invitrogen), FSL-1 (synthetic diacyl lipoprotein, TLR2/6, 100 ng/ml), lipopolysaccharide (LPS, TLR4, Sigma Aldrich), imiquimod (IMQ, TLR7, Invitrogen), and ODN2395 (type C CpG repeat motif DNA oligo(5′-[…]-3), TLR9, Bioneer) ligand for 4 hours, and treated with poly I:C (I:C repeat motif double-stranded RNA, TLR3, Invitrogen) and TL8-506 (TLR8, Invitrogen) showing delayed reactivity for 24 hours. After activation of TLR, the supernatant was diluted in an appropriate ratio so as to measure within the standard dose range, transferred to a pre-coated 96-well assay plate, and then treated with mouse TNF-alpha secretion level in accordance with the manufacturer's instructions using a mouse-TNF-alpha ELISA-kit (Invitrogen).
In order to plot the concentration-dependent LC50 curves, treatment with the SK series ligands at different concentrations up to 200 μM (the highest concentration that could be treated within the level of 0.5% DMSO) was performed. Then, cell viability and toxicity response upon treatment with ligands were analyzed by MTT as described in Examples 1-3. Cell viability in each plot was normalized from negative control (100%; no treatment) to positive control (highest concentration of test-ligand), and LC50 was determined by non-linear regression (Graph Pad Prism 7.0). In order to plot the concentration-dependent IC50 curves, pre-treatment with the SK series ligands was performed at different concentrations up to 50 μM (twice the initial concentration). Cell responses mediated by TLR7 and TLR9 (levels of TNF-α secretion) were analyzed by ELISA as described in Examples 1-4. The cytokine level in each plot was normalized from negative control (non-treated) to positive control (treatment with ligand), and IC50 was determined by non-linear regression (Graph Pad Prism 7.0).
In order to select potential inhibitory molecules against TLR3/TLR7/TLR8/TLR9 activation, first, MTT (3-(4,5-dimethylthiazol-2-yl)-2,5-diphenyltetrazolium bromide) cell viability assay (FIG. 7) was performed upon treatment with a set of ligands from SK21 to SK82 at a concentration of 20 μM and the inhibitory activity thereof was evaluated by an ELISA assay to monitor the level of TNF-α secretion in RAW 264.7 cells. The experimental ligands from SK21 to SK82 were administered at 0.5 μM or 2 μM to the RAW 264.7 cells and stimulated with Imiquimod (TLR7, 1 μg/ml) and OND2395 (TLR9, 0.5 μM).

| Structure (SMILES) | inhibitory activity against TLR7 activation (TNF-α secretion) |
| --- | --- |
| Cc1c(C)n(CCN(C)C)c2nc3c(c(N)c12)CCCCC3 [SK01, 1-(2-(dimethylamino)ethyl)-2,3-dimethyl-1,5,6,7,8,9-hexahydrocyclohepta[b]pyrrolo[3,2-e]pyridin-4-amine] | inhibitory ability for TLR7/TLR9 activation was verified; also recorded: specifically inhibit |
| Cc1c(C)n(CCCN(C)C)c2nc3c(c(N)c12)CCCCC3 [SK16, 1-(3-(dimethylamino)propyl)-2,3-dimethyl-1,5,6,7,8,9-hexahydrocyclohepta[b]pyrrolo[3,2-e]pyridin-4-amine] | potent inhibitor; also recorded: best inhibitory activity among the structural analogues of SK01; also recorded: specifically inhibit |

Same assay, conditions: SK21 to SK82 at 0.5 μM or 2 μM, Imiquimod 1 μg/ml

| Structure (SMILES) | inhibitory activity against TLR7 (level of TNF-α secretion) |
| --- | --- |
| Cc1cc2c(N)c3c(nc2n1CCCN(C)C)CCCCCC3 [SK41, 1-(3-(dimethylamino)propyl)-2-methyl-5,6,7,8,9,10-hexahydro-1H-cycloocta[b]pyrrolo[3,2-e]pyridin-4-amine] | significant inhibitory activity; also recorded: significantly reduced |
| COc1ccc2c(c1)c1c(N)c3c(nc1n2CCCN(C)C)CCCC3 [SK50, 6-(3-(dimethylamino)propyl)-9-methoxy-2,3,4,6-tetrahydro-1H-indolo[2,3-b]quinolin-11-amine] | significant inhibitory activity; also recorded: significantly reduced |
| Cc1ccc2c(c1)c1c(N)c3c(nc1n2CCCN(C)C)CCCC3 [SK58, 6-(3-(dimethylamino)propyl)-9-methyl-2,3,4,6-tetrahydro-1H-indolo[2,3-b]quinolin-11-amine] | significant inhibitory activity; also recorded: significantly reduced |
| COC(=O)c1ccc2c(c1)c1c(N)c3c(nc1n2CCCN(C)C)CCCC3 [SK64, Methyl 11-amino-6-(3-(dimethylamino)propyl)-2,3,4,6-tetrahydro-1H-indolo[2,3-b]quinolin-9-carboxylate] | significant inhibitory activity; also recorded: significantly reduced |
